Test results from patent US20060019241A1, “Na+ and CI-coupled transport system for endogenous opioid peptides” (priority 2004, published 2006).
Entries after “also recorded” stand apart in the source; their conditions may differ.

Experiments:
[1] = tested on: enkephalin/endorphin transport system in SK—N—SH cells; assay: [^3H]deltorphin II uptake in SK—N—SH cells, effect of peptides and amino acids; format: cell-based, human; conditions: for influence on kinetics of deltorphin II uptake / type of inhibition: 250 μM L-Lysine; for effect on [^3H]deltorphin II uptake (in words): test substance 1 mM
Experimental: (§1) Uptake measurements in control ARPE-19 cells and Tat-ARPE-19 cells. Control ARPE-19 cells and Tat-ARPE-19 cells were maintained in 75-cm^2 culture flasks in Dulbecco's modified Eagle's medium/F12 medium (1:1, volume/volume (v/v)) in the presence of fetal bovine serum (10%) and G418 (100 μg/ml). For uptake measurements, cells were released by trypsin treatment and seeded in 24-well culture plates at an initial density of 0.1×10^6 cells/well. The culture medium was replaced with fresh medium on the second day following the initial seeding and uptake measurements were made on the third day. […] After incubation at 37° C. for a desired time, uptake was terminated by the removal of the medium and washing of the cells with ice-cold uptake buffer. The cells were then dissolved in 1% SDS in 0.2 M NaOH and used for measurement of radioactivity. The uptake buffer in most experiments was 25 mM Hepes/Tris (pH 7.5), containing 140 mM NaCl, 5.4 mM KCl, 1.8 mM CaCl2, 0.8 mM MgSO4 and 5 mM glucose.
Since enkephalins and endorphins are relevant to pain perception and to further provide evidence in support of a role for the transport system in opioidergic neurotransmission, the human neuronal cell line SK—N—SH was tested for expression of the transport system. […] Unless otherwise specified, procedures are as detailed in Example 1.
The concentration of enkephalins and dynorphins was 1 mM.
Finally, the relative affinity of various enkephalins and dynorphins for the transport system in SK—N—SH cells was determined.
To the further characterize the opioid transport of the present invention, various specific peptides that act as positive modulators of the enkephalin/endorphin transport system in the human neuronal cell line SK—N—SH were identified. Unless otherwise specified, procedures are as detailed in Example 1. […] Uptake was measured in the presence of NaCl for 30 minutes. The concentration of the dipeptides was 1 mM.
Uptake was measured in the presence of NaCl for 30 minutes. The concentration of the tripeptides was 1 mM.
Unless otherwise specified, procedures are as described in more detail in Example 1.
The dose-response relationship for the inhibition of the enkephalin/endorphin transport system by L-Lysine and its methyl and ethyl esters is shown in FIG. 15.

[2] = tested on: opioid peptide transport system in rMC-1 cells; assay: Opioid peptide transport in rMC-1 cells; format: cell-based, rat
SK—N—SH cells = assay: L-lysine uptake in SK—N—SH cells; format: cell-based, human
Experimental: Whether or not L-lysine is a transportable substrate for the opioid peptide transport system was tested. For this, uptake of L-lysine was studied and the influence of Na^+ and opioid peptides assessed in SK—N—SH cells.

[3] = tested on: deltorphin II uptake inducible by rMC-1 mRNA in X. laevis oocytes; assay: Deltorphin II uptake in X. laevis oocytes injected with rMC-1 mRNA; format: cell-based, rat; conditions: X. laevis oocytes injected with rMC-1 poly(A)+ mRNA, deltorphin II 125 nM
Experimental: Therefore, functional expression of the deltorphin II transport system in X. laevis oocytes will be used to clone this transport system. […] Poly(A)+ mRNA was prepared from this cell line for functional expression studies in X. laevis oocytes.

[4] = tested on: deltorphin II transport system in Tat-ARPE-19 cells; assay: Inhibition of [^3H]deltorphin II uptake in Tat-ARPE-19 cells; format: cell-based, human; conditions: Tat-ARPE-19 cells, [^3H]deltorphin II 50 nM, 30 minutes, NaCl, inhibitor 1 mM
Source text: (§2) Stable transfection of ARPE-19 cells with pcDNA-Tat cDNA. The pGEM2-Tat cDNA construct contained as the insert a 295 basepair (bp) fragment encoding the first exon of HIV-1 Tat gene joined to a 145 bp pET3A transcription terminator. The entire insert (440 bp) was removed from the construct by digestion with PstI and EcoRI and ligated into the multiple cloning region of pcDNA3.1 (−) vector at PstI/EcoRI site so that the insert is downstream of the cytomegalovirus (CMV) promoter. The resultant construct was sequenced to confirm the orientation of the insert. This construct was electroporated into ARPE-19 cells and the stably transfected cell clones were isolated in the presence of Geneticin (G418). To serve as a control, empty pcDNA3.1 vector was electroporated into ARPE-19 cells in an identical manner and the clones harboring the vector were selected by G418 resistance.
as §1
When the influence of Na^+ on the uptake process was investigated, the concentration of NaCl in the uptake buffer was adjusted, as desired, by isoosmotically replacing NaCl with N-methyl-D-glucamine chloride. To assess the influence of Cl^− on the uptake process, the composition of the uptake medium was modified by replacing KCl and CaCl2 with equimolar concentrations of potassium gluconate and calcium gluconate and the concentration of NaCl was adjusted, as desired, by iso-osmotically replacing NaCl with sodium gluconate. Saturation kinetics were analysed by fitting the data to the Michaelis-Menten equation. The Michaelis-Menten constant, Kt, was calculated by non-linear regression analysis and then confirmed by linear regression. Na^+- and Cl^−-activation kinetics were analyzed by fitting the data to the Hill equation and the Hill coefficients for Na^+ and Cl^− (h; the number of Na^+ and Cl^− ions involved in the activation process) and the K0.5 values (the concentration of Na^+ and Cl^−-needed for half-maximal activation) were determined from the analysis. Again, these constants were first calculated by non-linear regression methods and subsequently confirmed by linear regression methods. Experiments were repeated three times in duplicate and the results are given as means±S.E.M.
(§3) Substrate specificity of the deltorphin transport system. […] These peptides consisted of 4-13 amino acids.
Relative affinities of endogenous opioid peptides for the transport system.

[5] = tested on: deltorphin II transport system in control ARPE-19 cells; assay: Inhibition of [^3H]deltorphin II uptake in control ARPE-19 cells; format: cell-based, human; conditions: [^3H]deltorphin II 50 nM, 30 minutes, NaCl, peptide/antagonist 1 mM
Source text: as §2, §1, §3

NCCCC[C@H](N)C(=O)O [L-Lys, L-lysine]
interaction with the opioid peptide transport system (in words, summary of Examples) [1]: inhibited; also recorded: not a transportable substrate but a blocker
influence on kinetics of deltorphin II uptake / type of inhibition ([1]; listed as L-Lysine): decreased the maximal velocity of the transport system without affecting the affinity for deltorphin II; also recorded: decreasing the maximal velocity without affecting the substrate affinity
influence on kinetics of deltorphin II uptake / type of inhibition ([1]; listed as L-lysine): non-competitive
Deltorphin II uptake ([1]; [^3H]deltorphin II 25 nM, NaCl, 30 minutes, compound 1 mM): 0.26 ± 0.01 pmol/30 min/mg protein
effect on [^3H]deltorphin II uptake (in words) ([1]; [^3H]deltorphin II 25 nM, NaCl, 30 minutes, listed as L-Lysine): significant inhibition; also recorded: most potent inhibitors
effect on [^3H]deltorphin II uptake (in words) ([1]; [^3H]deltorphin II 25 nM, NaCl, 30 minutes, listed as L-lysine): greatest inhibition; also recorded: inhibit the uptake to a marked extent
Ki ([1]; read-out: Ki for inhibition of deltorphin II uptake, dose-response studies): 160 ± 19 µM
interaction with the opioid peptide transport system (in words) [2]: inhibited; also recorded: not a transportable substrate but a blocker
L-lysine uptake: influence of Na^+ and opioid peptides; transportable substrate or not (SK—N—SH cells): not Na^+-dependent and is insensitive to opioid peptides; also recorded: not a transportable substrate

C[C@]12CC[C@@H]3c4ccc(OS(=O)(=O)O)cc4CC[C@H]3[C@@H]1CCC2=O [estrone-3-sulfate]
inhibition of mRNA-induced deltorphin II uptake (in words) [3]: only a slight inhibition; also recorded: only slightly inhibited

YGGFLRRQF [Dynorphin B (1-9)]
[^3H] Deltorphin II uptake [4]: 0.08 ± 0.01 pmol/mg protein/30 min
[^3H] Deltorphin II uptake (%) of control ([4]; control = 100): 1%
inhibition of mRNA-induced deltorphin II uptake (in words) ([3]; listed as dynorphin B 1-9): completely inhibitable
inhibition of mRNA-induced deltorphin II uptake (in words) ([3]; listed as dynorphin B1-9): completely inhibited
[^3H] Deltorphin II uptake ([5]; control ARPE-19 cells (pcDNA vector alone)): 0.06 ± 0.000 pmol/mg protein/30 min
[^3H] Deltorphin II uptake (%) of control ([5]; control ARPE-19 cells, control = 100): 5%
